Data reported in paper PMC10175918 (Communications Biology, 2023).
Read-outs that look alike come from different tables or passages of the source. Each block holds one compound with its values, some of them ahead of it.

How the values were obtained:
Test in all cases: TGFα-shedding assay-based GPCR screening with chimeric Gα subunit proteins
Format in all cases: cell-based
348 GPCRs [1] = biological target: 348 GPCRs (Homo sapiens, UniProt P43220); settings: 10µM, Favipiravir 100μM
348 GPCRs [2] = biological target: 348 GPCRs (Homo sapiens, UniProt Q99500); settings: 10µM, Favipiravir 100μM
348 GPCRs [3] = biological target: T1, 348 GPCRs (Homo sapiens, UniProt Q9NQ84); settings: 10µM, Favipiravir 100μM
T1 construct: expressed in transfected cells; host or cells: HEK293A

348 GPCRs [4] = biological target: T2, 348 GPCRs (Homo sapiens, UniProt O00398)
T2 construct: expressed in transfected cells; host or cells: HEK293A

348 GPCRs [5] = biological target: T3, 348 GPCRs (Homo sapiens, UniProt P30542); settings: 10µM, Favipiravir 100μM
T3 sequence (P30542 1-326): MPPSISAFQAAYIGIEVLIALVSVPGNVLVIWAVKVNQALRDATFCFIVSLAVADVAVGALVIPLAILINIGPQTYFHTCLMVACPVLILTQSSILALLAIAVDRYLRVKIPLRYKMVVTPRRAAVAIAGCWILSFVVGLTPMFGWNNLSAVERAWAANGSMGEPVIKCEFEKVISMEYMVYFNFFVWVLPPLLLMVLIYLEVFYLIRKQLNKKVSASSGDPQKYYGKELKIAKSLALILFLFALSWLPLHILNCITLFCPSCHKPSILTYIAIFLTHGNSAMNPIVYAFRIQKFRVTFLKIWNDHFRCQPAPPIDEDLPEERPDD

348 GPCRs [6] = biological target: T4, 348 GPCRs (Homo sapiens, UniProt Q9NYV9); settings: 10µM, Favipiravir 100μM
T4 construct: expressed in transfected cells; host or cells: HEK293A
T4 sequence (Q9NYV9 1-303): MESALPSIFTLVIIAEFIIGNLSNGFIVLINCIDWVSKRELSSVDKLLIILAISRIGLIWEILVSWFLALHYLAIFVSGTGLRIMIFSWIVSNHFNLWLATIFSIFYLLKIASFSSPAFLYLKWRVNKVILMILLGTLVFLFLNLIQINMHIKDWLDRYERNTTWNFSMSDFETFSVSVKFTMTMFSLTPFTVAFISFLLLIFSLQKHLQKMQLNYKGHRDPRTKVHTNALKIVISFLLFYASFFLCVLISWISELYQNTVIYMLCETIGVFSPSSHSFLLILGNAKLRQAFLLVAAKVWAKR

348 GPCRs [7] = biological target: T5, 348 GPCRs (Homo sapiens, UniProt Q5T848); settings: 10µM, Favipiravir 100μM
T5 construct: expressed in transfected cells; host or cells: HEK293A
T5 sequence (Q5T848 24-1215): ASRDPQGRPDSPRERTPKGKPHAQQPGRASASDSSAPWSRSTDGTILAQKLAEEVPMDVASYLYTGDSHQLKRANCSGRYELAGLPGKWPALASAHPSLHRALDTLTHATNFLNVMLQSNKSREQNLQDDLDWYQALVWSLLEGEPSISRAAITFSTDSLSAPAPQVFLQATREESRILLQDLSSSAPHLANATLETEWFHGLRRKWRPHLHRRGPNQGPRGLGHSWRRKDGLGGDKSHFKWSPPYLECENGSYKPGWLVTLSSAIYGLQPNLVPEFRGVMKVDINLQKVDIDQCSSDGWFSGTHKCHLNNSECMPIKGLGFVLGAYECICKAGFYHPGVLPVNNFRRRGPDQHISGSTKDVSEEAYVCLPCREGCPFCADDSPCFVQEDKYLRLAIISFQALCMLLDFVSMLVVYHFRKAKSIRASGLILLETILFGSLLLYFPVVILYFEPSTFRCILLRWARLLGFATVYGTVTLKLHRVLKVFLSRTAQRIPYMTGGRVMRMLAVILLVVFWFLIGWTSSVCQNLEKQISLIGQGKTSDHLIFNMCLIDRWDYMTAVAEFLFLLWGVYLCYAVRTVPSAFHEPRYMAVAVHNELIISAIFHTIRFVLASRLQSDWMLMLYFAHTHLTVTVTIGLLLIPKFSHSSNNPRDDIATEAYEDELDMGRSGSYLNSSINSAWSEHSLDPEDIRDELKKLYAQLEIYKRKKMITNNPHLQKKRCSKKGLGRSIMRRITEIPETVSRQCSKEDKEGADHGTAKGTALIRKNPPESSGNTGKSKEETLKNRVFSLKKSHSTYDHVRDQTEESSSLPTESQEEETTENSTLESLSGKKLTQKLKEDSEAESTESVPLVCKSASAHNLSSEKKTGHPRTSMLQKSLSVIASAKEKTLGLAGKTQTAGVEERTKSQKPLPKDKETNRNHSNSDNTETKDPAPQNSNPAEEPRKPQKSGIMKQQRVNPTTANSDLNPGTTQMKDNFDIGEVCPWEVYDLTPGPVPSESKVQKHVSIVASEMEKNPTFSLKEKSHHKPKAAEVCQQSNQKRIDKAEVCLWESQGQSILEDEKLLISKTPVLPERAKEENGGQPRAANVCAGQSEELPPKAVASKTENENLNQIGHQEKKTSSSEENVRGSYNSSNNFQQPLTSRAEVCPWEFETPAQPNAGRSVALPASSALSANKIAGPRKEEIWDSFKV

348 GPCRs [8] = biological target: T6, 348 GPCRs (Homo sapiens, UniProt P51679); settings: 10µM, Favipiravir 100μM
T6 construct: expressed in transfected cells; host or cells: HEK293A
T6 sequence (P51679 1-360): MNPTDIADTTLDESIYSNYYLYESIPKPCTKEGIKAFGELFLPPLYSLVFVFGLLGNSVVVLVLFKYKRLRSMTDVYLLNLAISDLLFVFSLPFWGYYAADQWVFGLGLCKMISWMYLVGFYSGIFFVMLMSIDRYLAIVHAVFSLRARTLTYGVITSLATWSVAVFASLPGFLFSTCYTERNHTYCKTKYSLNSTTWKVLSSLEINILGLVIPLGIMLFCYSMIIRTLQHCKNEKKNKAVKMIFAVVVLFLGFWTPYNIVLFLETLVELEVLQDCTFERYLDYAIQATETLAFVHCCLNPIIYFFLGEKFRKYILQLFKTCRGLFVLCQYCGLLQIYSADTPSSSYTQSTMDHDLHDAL

[9] = read-out: % GPCR activation compared to TPA, GLP1R (glucagon-like peptide 1 receptor)
[10] = read-out: % GPCR activation compared to TPA, S1PR3 (sphingosine-1-phosphate receptor 3)
[11] = read-out: % GPCR activation compared to TPA, GPRC5C (G protein-coupled receptor, family C, group 5, member C)
[12] = read-out: % GPCR activation compared to TPA, GPCR P2RY10 (purinergic receptor P2Y, G-protein coupled, 10)
[13] = read-out: % GPCR activation compared to TPA, ADORA1 (adenosine A1 receptor)
[14] = read-out: % GPCR activation compared to TPA, TAS2R13 (taste receptor, type 2, member 13)
[15] = read-out: % GPCR activation compared to TPA, GPR158 (G Protein-Coupled Receptor 158)
[16] = read-out: % GPCR activation compared to TPA, CCR4 (C-C motif chemokine receptor 4)
[17] = GLP1R (glucagon-like peptide 1 receptor), read-out: % GPCR activation compared to TPA
[18] = S1PR3 (sphingosine-1-phosphate receptor 3), read-out: % GPCR activation compared to TPA
[19] = GPRC5C (G protein-coupled receptor, family C, group 5, member C), read-out: % GPCR activation compared to TPA
[20] = GPCR P2RY10 (purinergic receptor P2Y, G-protein coupled, 10), read-out: % GPCR activation compared to TPA
[21] = ADORA1 (adenosine A1 receptor), read-out: % GPCR activation compared to TPA
[22] = TAS2R13 (taste receptor, type 2, member 13), read-out: % GPCR activation compared to TPA
[23] = GPR158 (G Protein-Coupled Receptor 158), read-out: % GPCR activation compared to TPA
[24] = CCR4 (C-C motif chemokine receptor 4), read-out: % GPCR activation compared to TPA

Sequence of 348 GPCRs (Homo sapiens, UniProt P43220) (P43220 24-463): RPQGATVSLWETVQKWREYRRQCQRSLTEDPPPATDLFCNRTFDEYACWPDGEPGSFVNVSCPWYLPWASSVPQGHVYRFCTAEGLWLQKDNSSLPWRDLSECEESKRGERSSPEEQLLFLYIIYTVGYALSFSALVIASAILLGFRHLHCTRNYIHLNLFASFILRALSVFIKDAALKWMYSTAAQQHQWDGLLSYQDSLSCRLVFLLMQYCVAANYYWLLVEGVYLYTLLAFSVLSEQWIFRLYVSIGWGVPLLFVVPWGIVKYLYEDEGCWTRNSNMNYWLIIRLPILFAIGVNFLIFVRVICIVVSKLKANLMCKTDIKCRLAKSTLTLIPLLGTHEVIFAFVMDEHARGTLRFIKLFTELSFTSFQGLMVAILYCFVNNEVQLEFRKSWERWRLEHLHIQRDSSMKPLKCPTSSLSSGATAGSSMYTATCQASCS
T2 sequence (O00398 whole entry): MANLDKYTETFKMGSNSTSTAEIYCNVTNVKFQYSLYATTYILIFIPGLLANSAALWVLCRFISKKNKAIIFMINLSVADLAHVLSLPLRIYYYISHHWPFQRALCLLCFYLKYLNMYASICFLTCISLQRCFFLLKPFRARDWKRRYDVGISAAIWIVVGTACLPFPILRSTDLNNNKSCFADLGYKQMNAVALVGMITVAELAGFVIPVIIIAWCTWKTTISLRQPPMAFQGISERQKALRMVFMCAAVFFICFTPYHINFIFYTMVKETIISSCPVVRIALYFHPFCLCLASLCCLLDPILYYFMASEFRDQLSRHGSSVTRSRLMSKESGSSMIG
Sequence of 348 GPCRs (Homo sapiens, UniProt Q99500) (Q99500 whole entry): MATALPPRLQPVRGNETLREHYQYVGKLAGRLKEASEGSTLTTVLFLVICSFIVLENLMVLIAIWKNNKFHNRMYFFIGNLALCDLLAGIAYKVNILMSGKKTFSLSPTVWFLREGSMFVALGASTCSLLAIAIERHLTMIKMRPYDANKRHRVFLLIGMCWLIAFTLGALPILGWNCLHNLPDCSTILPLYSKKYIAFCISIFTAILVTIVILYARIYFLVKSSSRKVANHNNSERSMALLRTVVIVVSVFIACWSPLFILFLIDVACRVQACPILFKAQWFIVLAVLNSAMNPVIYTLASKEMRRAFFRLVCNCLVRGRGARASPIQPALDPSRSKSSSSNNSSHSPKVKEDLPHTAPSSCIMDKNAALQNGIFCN
T1 sequence (Q9NQ84 24-441): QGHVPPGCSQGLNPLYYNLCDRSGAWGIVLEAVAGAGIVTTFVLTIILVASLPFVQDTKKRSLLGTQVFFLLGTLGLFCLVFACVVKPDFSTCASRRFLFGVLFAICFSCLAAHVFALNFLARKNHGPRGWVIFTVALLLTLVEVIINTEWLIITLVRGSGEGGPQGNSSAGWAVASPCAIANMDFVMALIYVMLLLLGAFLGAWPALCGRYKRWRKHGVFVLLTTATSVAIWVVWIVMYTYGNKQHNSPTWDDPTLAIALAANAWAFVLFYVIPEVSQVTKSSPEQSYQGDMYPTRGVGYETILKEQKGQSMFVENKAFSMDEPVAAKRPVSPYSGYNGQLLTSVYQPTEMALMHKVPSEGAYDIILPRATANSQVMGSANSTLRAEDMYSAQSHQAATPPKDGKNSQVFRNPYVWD

Compound: CC(C)OC(=O)[C@H](C)N[P@](=O)(OC[C@H]1O[C@@H](n2ccc(=O)[nH]c2=O)[C@](C)(F)[C@@H]1O)Oc1ccccc1 [sofosbuvir]
- activation at 10 µM (348 GPCRs [1]; [9]): -2.54%
- activation at 10 µM (348 GPCRs [2]; [10]): -0.452%
- activation at 100 µM (348 GPCRs [3]; [11]): -0.501%
- activation at 10 µM (348 GPCRs [4]; [12]): 0.334%
- activation at 100 µM (348 GPCRs [5]; [13]): 1.9%
- activation at 100 µM (348 GPCRs [6]; [14]): -2.09%
- activation at 10 µM (348 GPCRs [7]; [15]): 3.31%
- activation at 100 µM (348 GPCRs [8]; [16]): -2.38%

Compound: NC(=O)c1nc(F)cnc1O [favipiravir, 6-fluoro-3-hydroxy-2-pyrazinecarboxamide]
- activation at 10 µM (348 GPCRs [1]; [17]): -2.54%
- activation at 10 µM (348 GPCRs [2]; [18]): -2%
- activation at 100 µM (348 GPCRs [3]; [19]): -1.31%
- activation at 100 µM (348 GPCRs [4]; GPCR P2RY10 (purinergic receptor P2Y, G-protein coupled, 10), 100μM, read-out: % GPCR activation compared to TPA): -0.745%
- activation at 100 µM (348 GPCRs [5]; [21]): -0.249%
- activation at 100 µM (348 GPCRs [6]; [22]): -1.06%
- activation at 10 µM (348 GPCRs [7]; [23]): 2.24%
- activation at 100 µM (348 GPCRs [8]; [24]): 0.85%

Compound: CCC(CC)COC(=O)[C@H](C)N[P@](=O)(OC[C@H]1O[C@@](C#N)(c2ccc3c(N)ncnn23)[C@H](O)[C@@H]1O)Oc1ccccc1 [remdesivir]
- activation at 10 µM (348 GPCRs [1]; [9]): -0.928%
- activation at 10 µM (348 GPCRs [2]; [10]): -2.57%
- activation at 100 µM (348 GPCRs [3]; [11]): -1.81%
- activation at 10 µM (348 GPCRs [4]; [12]): -1.53%
- activation at 100 µM (348 GPCRs [5]; [13]): 3.8%
- activation at 100 µM (348 GPCRs [6]; [14]): 1.1%
- activation at 10 µM (348 GPCRs [7]; [15]): 0.972%
- activation at 100 µM (348 GPCRs [8]; [16]): 1.77%

Second part, the compound after the results:

- activation at 10 µM (348 GPCRs [1]; [17]): -2.83%
- activation at 10 µM (348 GPCRs [2]; [18]): -2.52%
- activation at 100 µM (348 GPCRs [3]; [19]): -0.707%
- activation at 10 µM (348 GPCRs [4]; [20]): -1.61%
- activation at 100 µM (348 GPCRs [5]; [21]): -3.9%
- activation at 100 µM (348 GPCRs [6]; [22]): -0.971%
- activation at 10 µM (348 GPCRs [7]; [23]): 1.57%
- activation at 100 µM (348 GPCRs [8]; [24]): 1.67%
Compound: CC(C)C(=O)OC[C@H]1O[C@@H](n2ccc(NO)nc2=O)[C@H](O)[C@@H]1O [molnupiravir]

- activation at 10 µM (348 GPCRs [1]; [17]): -1.52%
- activation at 10 µM (348 GPCRs [2]; [18]): -2.2%
- activation at 100 µM (348 GPCRs [3]; [19]): -1%
- activation at 10 µM (348 GPCRs [4]; [20]): -1.36%
- activation at 100 µM (348 GPCRs [5]; [21]): 0.705%
- activation at 100 µM (348 GPCRs [6]; [22]): 0.783%
- activation at 10 µM (348 GPCRs [7]; [23]): 0.213%
- activation at 100 µM (348 GPCRs [8]; [24]): -0.385%
Compound: N#C[C@@]1(c2ccc3c(N)ncnn23)O[C@H](CO)[C@@H](O)[C@H]1O [GS441524]
